The results in this text go back to patent US20190322643A1 (Georgia State University Research Foundation, Inc., priority 2016, published 2019).

In general, IC50 refers to the concentration at which inhibition is half-maximal. As usually defined, the EC50 is the midpoint of the concentration-response curve. A higher EC50 goes with lower potency in that assay. Broadly, the inhibition is the percentage by which the read-out fell short of the control. The low end stands for a weak effect, the high end for a strong effect.

The test system of assay [1] is HDAC. Description: Cell based homogenous HDAC assay, K562. To be noted: read-out: IC50-HDAC K562; K562 cells, mean ± SD of triplicate.
Description: (§3) After 24 h, 9 μl inhibitors with different concentration were added to the HeLa cells and incubation was continued for 3 h under cell culture conditions. After this treatment period, 10 μl of a 2 mM stock solution of the substrate Boc-K(Ac)-AMC was added into the 96 well plates with Hela cells and inhibitors. […] A549 and K562 cell lines used the same method, respectively. IC50s were calculated using GraphPad Prizm statistical package with sigmoidal variable slope dose response curve fit.
(§4) Boc-K(Ac)-AMC was used as a cell-permeable HDAC substrate, as after deacetylation it is cleaved by trypsin to release the florescent 7-amino-4-methylcoumarin (AMC).
The subject of assay [2] is HDAC. Description: Cell based homogenous HDAC assay, Hela. To be noted: read-out: IC50-HDAC Hela; Hela cells, mean ± SD of triplicate.
Description: as §3, §4
A further assay deals with HCT-8. Description: Cytotoxicity / anti-proliferation assay (CCK-8), HCT-8. The format is cell-based. To be noted: Homo sapiens, 72 h, CCK-8 kit. On the procedure: (§1) Then the cells were exposed to the different inhibitors with various concentrations for 72 h. […] EC50s were calculated using GraphPad Prizm statistical package with sigmoidal variable slope dose response curve fit.
(§2) Cell anti-proliferation assays were performed to determine the toxicity of these inhibitors. […] These compounds were further evaluated against the control cell line HEK293 to test their toxicity with a non-cancerous cell line.
(Formazan colour is commonly taken as a measure of viable cells.)

For assay [3], the system named is HDAC. Put plainly: Cell based homogenous HDAC assay, A549. To be noted: read-out: IC50-HDAC A549; A549 cells, mean ± SD of triplicate.
Description: as §3, §4
The target of assay [4] is T1, Mouse histone methyltransferase G9a (969-1263) (Mus musculus, UniProt Q9Z148).
T1 construct: The 6His-sumo mG9a (969-1263) protein was purified using the following procedure; 6His-sumo (cleaved yes); made in house; host or cells: Escherichia coli BL21 (DE3)
T1 sequence (Q9Z148 969-1263): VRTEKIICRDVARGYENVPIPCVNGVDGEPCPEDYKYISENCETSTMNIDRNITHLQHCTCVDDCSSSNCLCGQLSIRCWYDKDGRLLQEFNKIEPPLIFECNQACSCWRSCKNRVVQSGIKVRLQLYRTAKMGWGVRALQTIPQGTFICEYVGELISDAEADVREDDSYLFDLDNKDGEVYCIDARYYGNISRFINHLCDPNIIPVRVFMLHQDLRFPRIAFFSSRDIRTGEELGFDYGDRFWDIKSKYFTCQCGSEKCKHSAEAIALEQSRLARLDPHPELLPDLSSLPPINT
Put plainly: MALDI-TOF methylation study of G9a inhibition. The format is biochemical. To be noted: inhibitors at 5 μM concentration for 30 min. On the procedure:
Mouse histone methyltransferase G9a (969-1263) cDNA was amplified from the cDNA of BALB/c mouse thymus, and the fragment was sub-cloned into a vector with a 6His-sumo tag. […] The 6His-sumo mG9a (969-1263) protein was purified using the following procedure: harvested cell pellet was re-suspended in 20 mM Tris (pH 8.0), 500 mM NaCl, 0.1% β-mercaptoethanol, and 1 mM PMSF. Cells were lysed by sonicating for 15 seconds with 6 second intervals for a total time of 15 minutes on an ice bath. […] The 6His-sumo tag was cleaved from the column by adding Ubiquitin-like-specific protease 1 (ULP-1) at 4° C. for 12 hours. Wash buffer was then run through the Ni^+ column again and the elution buffer collected. Subsequently, advanced protein purification was done by HiTrap Q HP sequential Superdex 200 10/300 GL. Elute of every step was analyzed by SDS PAGE, stained by Coomassie brilliant blue (CBB). […] The reaction was incubated at room temperature for 30 min, and stopped by TFA. 1 μL of the sample was mixed with CHCA matrix and m/z peaks were obtained at reflection positive mode. The results of mass spectrum were analyzed using the Bruker flex analysis software and data processing was carried out as described below. MALDI-TOF based experiments were performed according to the protocol developed by Chang et al. (Nat. Struct. Mol. Biol. 2009, 16, 312-317). MALDI spectra were collected using Bruker flex control software and analyzed by flex analysis. After labelling each cluster peaks of H3K9Me0, H3K9Me1 and H3K9Me2 for all of the tested concentrations, area under the cluster (AUC) were extracted by using the same flex analysis software. % abundance of each peak was calculated by following formula: A=% Abundance of (H3K9Me0)=area of H3K9Me0/(area of H3K9Me0+area of H3K9Me1+area of H3K9Me2) B=% Abundance of (H3K9Me1)=area of H3K9Me1/(area of H3K9Me0+area of H3K9Me1+area of H3K9Me2) C=% Abundance of (H3K9Me2)=area of H3K9Me2/(area of H3K9Me0+area of H3K9Me1+area of H3K9Me2). This was repeated for each spectra (3 multiples for each samples). […] Finally % inhibition was found by subtracting % MA(i) from 100. […] A biochemical assay using MALDI-TOF was used to visualize the effects of the synthesized compounds on G9a enzymatic activity. […] Struct. Mol. Biol. 2009, 16, 312-317).

The test system of another assay is A549. Put plainly: Cytotoxicity / anti-proliferation assay (CCK-8), A549. The format is cell-based. To be noted: Homo sapiens, 72 h, CCK-8 kit. On the procedure: as §1, §2
The target of the next assay is T2, G9a (Homo sapiens, UniProt Q96KQ7).
T2 construct: endogenous in cells; host or cells: MDA-MB-231
T2 sequence (Q96KQ7 1-1210): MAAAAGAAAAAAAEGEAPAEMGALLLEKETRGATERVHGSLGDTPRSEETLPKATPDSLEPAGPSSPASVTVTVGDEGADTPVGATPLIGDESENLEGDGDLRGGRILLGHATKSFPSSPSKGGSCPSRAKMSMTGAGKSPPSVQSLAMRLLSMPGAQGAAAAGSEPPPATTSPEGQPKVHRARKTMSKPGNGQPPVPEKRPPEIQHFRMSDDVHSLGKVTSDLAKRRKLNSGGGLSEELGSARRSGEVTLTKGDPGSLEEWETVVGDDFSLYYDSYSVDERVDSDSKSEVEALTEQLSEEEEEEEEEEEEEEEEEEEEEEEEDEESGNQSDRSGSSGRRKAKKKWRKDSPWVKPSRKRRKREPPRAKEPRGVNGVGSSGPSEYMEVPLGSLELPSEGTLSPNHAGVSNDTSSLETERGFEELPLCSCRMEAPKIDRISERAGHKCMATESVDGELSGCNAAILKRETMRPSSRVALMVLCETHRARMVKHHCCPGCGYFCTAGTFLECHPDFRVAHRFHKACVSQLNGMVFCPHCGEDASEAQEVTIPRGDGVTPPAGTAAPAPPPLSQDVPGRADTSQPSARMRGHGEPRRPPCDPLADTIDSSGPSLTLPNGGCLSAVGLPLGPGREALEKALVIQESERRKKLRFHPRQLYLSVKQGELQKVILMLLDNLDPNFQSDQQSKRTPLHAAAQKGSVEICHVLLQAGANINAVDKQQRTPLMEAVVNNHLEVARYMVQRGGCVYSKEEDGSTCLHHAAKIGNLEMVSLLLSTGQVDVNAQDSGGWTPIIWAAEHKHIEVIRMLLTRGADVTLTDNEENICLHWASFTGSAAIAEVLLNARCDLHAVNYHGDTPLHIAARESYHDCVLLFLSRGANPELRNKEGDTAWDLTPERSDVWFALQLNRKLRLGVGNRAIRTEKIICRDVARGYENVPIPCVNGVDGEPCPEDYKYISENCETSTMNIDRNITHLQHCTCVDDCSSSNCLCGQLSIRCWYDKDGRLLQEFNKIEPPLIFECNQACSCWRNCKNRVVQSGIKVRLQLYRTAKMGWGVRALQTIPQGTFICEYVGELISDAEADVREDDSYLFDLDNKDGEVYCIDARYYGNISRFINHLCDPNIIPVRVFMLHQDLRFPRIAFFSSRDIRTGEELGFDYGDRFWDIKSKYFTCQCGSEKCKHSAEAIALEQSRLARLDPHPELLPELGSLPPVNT
Put plainly: H3K9Me2 cell immunofluorescence in-cell Western (ICW) assay. The format is cell-based. To be noted: MDA-MB-231 cell line, 48 h. On the procedure:
After the incubation, the media was removed and 100 μl fixation and permeabilization solution (2% formaldehyde in PBS) for fixation was added for 30 min. And then use 200 μl 0.1% Triton X100 in PBS washing solution to wash (allow wash to shake on a plate shaker for 5 minutes). After five washes, cells were blocked for 1 h with 150 μl blocking buffer to each well (1% BSA in PBS) (allow blocking at RT with moderate shaking on a plate shaker). After 1 h, remove the blocking buffer from the blocking step and add primary antibody in blocking buffer to cover the bottom of each well. […] The plates were read on an Odyssey CLX (LiCor) scanner at both 800 nm (H3K9me2 signal) and 700 nm (cell tag 700 stain signal) channels. IC50s were calculated using GraphPad Prizm statistical package with sigmoidal variable slope dose response curve fit.

SMILES strings stand for the structures. Bounds are passed on as bounds.

For the compound `COc1cc2nc(NCCNC(=O)CCCCCCC(=O)NO)nc(NC3CCN(C)CC3)c2cc1OC` [Compound 4, N1-(2-((6,7-dimethoxy-4-((1-methylpiperidin-4-yl)amino)quinazolin-2-yl)amino)ethyl)-N8-hydroxyoctanediamide], the IC50 with HDAC [1] was > 100 µM; with HDAC [2], > 100 µM; with HDAC [3], > 100 µM; at G9a, 96.7 ± 1.68 µM. Further, the half-maximal effective concentration (EC50) in the assay on HCT-8 and in the assay on A549 was > 100 µM in each case. For the same compound, at 5 µM the inhibition in assay [4] was 27 ± 12.2%.

For `COc1cc2nc(NCCNC(=O)CCCC(=O)NO)nc(NC3CCN(C)CC3)c2cc1OC` [Compound 7, N1-(2-((6,7-dimethoxy-4-((1-methylpiperidin-4-yl)amino)quinazolin-2-yl)amino)ethyl)-N5-hydroxyglutaramide], the 50% inhibitory concentration (IC50) is > 100 µM with HDAC [1], > 100 µM in the assay on HDAC [2], > 100 µM in the assay with HDAC [3] and 76.7 ± 0.89 µM on G9a. Further, the concentration for a half-maximal effect (EC50) in the assay with HCT-8 and in the assay with A549 was > 100 µM throughout. At 5 µM the inhibition in assay [4] was 19.6 ± 20.9%.

For the compound `COc1cc2nc(NCCNC(=O)CCCC(=O)NO)nc(NC3CCN(C(C)C)CC3)c2cc1OC` [Compound 7a, N1-hydroxy-N5-(2-((4-((1-isopropylpiperidin-4-yl)amino)-6,7-dimethoxyquinazolin-2-yl)amino)ethyl)glutaramide], the IC50 is > 100 µM in the assay on HDAC [1], > 100 µM in the assay with HDAC [2], > 100 µM with HDAC [3] and 54.6 ± 3.05 µM against G9a. The EC50 with HCT-8 and in the assay with A549 was > 100 µM throughout. The same compound gave an inhibition at 5 µM in assay [4] of 15 ± 15.7%.

For `COc1cc2nc(NCCNC(=O)CCCCCC(=O)NO)nc(NC3CCN(C(C)C)CC3)c2cc1OC` [Compound 5a, N1-hydroxy-N7-(2-((4-((1-isopropylpiperidin-4-yl)amino)-6,7-dimethoxyquinazolin-2-yl)amino)ethyl)heptanediamide], the IC50 in the assay on HDAC [1] is > 100 µM; in the assay on HDAC [2], > 100 µM; in the assay on HDAC [3] it was > 100 µM; at G9a, 66.6 ± 3.98 µM. Moreover, the EC50 in the assay with HCT-8 and with A549 was > 100 µM each time. Also, at 5 µM the inhibition in assay [4] was 47.5 ± 9.32%.

Consider `COc1cc2c(NC3CCN(C(C)C)CC3)nc(N3CCCN(C)CC3)nc2cc1OCCCCCCC(=O)NO` [Compound 26, N-hydroxy-7-((4-((1-isopropylpiperidin-4-yl)amino)-6-methoxy-2-(4-methyl-1,4-diazepan-1-yl)quinazolin-7-yl)oxy)heptanamide], for which the IC50 in the assay with HDAC [1] is > 100 µM; in the assay with HDAC [2] it was > 100 µM; with HDAC [3], > 100 µM; on G9a, 27.4 ± 3.59 µM. Besides, the EC50 with HCT-8 and in the assay on A549 was > 100 µM each time. Moreover, in assay [4], the inhibition at 5 µM was 35.6 ± 0.88%.

In the case of `COc1cc2nc(NCCNC(=O)CCCCC(=O)NO)nc(NC3CCN(C(C)C)CC3)c2cc1OC` [Compound 6a, N1-hydroxy-N6-(2-((4-((1-isopropylpiperidin-4-yl)amino)-6,7-dimethoxyquinazolin-2-yl)amino)ethyl)adipamide], the IC50 in the assay with HDAC [1], in the assay with HDAC [2], in the assay on HDAC [3] and on G9a was > 100 µM in each case. Further, the EC50 in the assay with HCT-8 and with A549 was > 100 µM in each case. In assay [4], this compound showed an inhibition at 5 µM of 50.6 ± 16.5%.

In the case of `COc1cc2nc(NCCNC(=O)CCCCC(=O)NO)nc(NC3CCN(C)CC3)c2cc1OC` [Compound 6, N1-(2-((6,7-dimethoxy-4-((1-methylpiperidin-4-yl)amino)quinazolin-2-yl)amino)ethyl)-N6-hydroxyadipamide], the 50% inhibitory concentration (IC50) in the assay on HDAC [1], with HDAC [2], with HDAC [3] and against G9a was > 100 µM throughout. Also, the EC50 in the assay on HCT-8 and in the assay on A549 was > 100 µM each time. In assay [4], this compound displayed an inhibition at 5 µM of 26.6 ± 11.3%.

Take `COc1cc2nc(NCCNC(=O)CCCCCCC(=O)NO)nc(NC3CCN(C(C)C)CC3)c2cc1OC` [Compound 4a, N1-hydroxy-N8-(2-((4-((1-isopropylpiperidin-4-yl)amino)-6,7-dimethoxyquinazolin-2-yl)amino)ethyl)octanediamide]: the IC50 was > 100 µM in the assay on HDAC [1], > 100 µM in the assay on HDAC [2], > 100 µM in the assay with HDAC [3] and 74.2 ± 1.94 µM on G9a. Also, the EC50 in the assay on HCT-8 and with A549 was > 100 µM in each case. Also, in assay [4], 5 µM produced 11.2 ± 3.68% inhibition.
